Tests used:
[1] = system: SMN2 minigene mRNA (SMN2-A minigene) in HEK293H cells; experiment: SMN2 minigene mRNA splicing RT-qPCR assay in cultured cells; assay type: cell-based, human; details: Homo sapiens, HEK293-H; concentration increasing full length SMN2 mRNA 1.5-fold relative to vehicle-treated cells; HEK293H cells with SMN2-A minigene, 24 hours, 7-point concentration data; read-out: EC1.5x for production of full length SMN2 mRNA
Procedure: The reverse transcription-quantitative PCR-based (RT-qPCR) assay is used to quantify the level of the full length SMN2 minigene mRNA containing SMN2 exon 7 in a HEK293H cell line stably transfected with said minigene and treated with a test compound.
Protocol. HEK293H cells stably transfected with the SMN2-A minigene construct described above (10,000 cells/well) are seeded in 200 μL of cell culture medium (DMEM plus 10% FBS, with 200 μg/mL hygromycin) in 96-well flat-bottom plates and the plate is immediately swirled to ensure proper dispersal of cells, forming an even monolayer of cells. Cells are allowed to attach for at least 4-6 hours. Test compounds are serially diluted 3.16-fold in 100% DMSO to generate a 7-point concentration curve. A solution of test compound (1 μL, 200× in DMSO) is added to each cell-containing well and the plate is incubated for 24 hours in a cell culture incubator (37° C., 5% CO2, 100% relative humidity). 2 replicates are prepared for each test compound concentration. The cells are then lysed in Cells-To-Ct lysis buffer and the lysate is stored at −80° C.
Primer SMN Forward A (SEQ ID NO. 1) hybridizes to a nucleotide sequence in exon 7 (nucleotide 22 to nucleotide 40), primer SMN Reverse A (SEQ ID NO. 2) hybridizes to a nucleotide sequence in the coding sequence of Firefly luciferase, SMN Probe A (SEQ ID NO. 3) hybridizes to a nucleotide sequence in exon 7 (nucleotide 50 to nucleotide 54) and exon 8 (nucleotide 1 to nucleotide 21). The combination of these three oligonucleotides detects only SMN1 or SMN2 minigenes (RT-qPCR) and will not detect endogenous SMN1 or SMN2 genes.
The SMN forward and reverse primers are used at final concentrations of 0.4 μM. The SMN probe is used at a final concentration of 0.15 μM. The GAPDH primers are used at final concentrations of 0.2 μM and the probe at 0.15 μM.
The SMN2-minigene GAPDH mix (15 μL total volume) is prepared by combining 7.5 μL of 2× RT-PCR buffer, 0.4 μL of 25× RT-PCR enzyme mix, 0.75 μL of 20× GAPDH primer-probe mix, 4.0075 μL of water, 2 μL of 10-fold diluted cell lysate, 0.06 μL of 100 μM SMN forward primer, 0.06 μL of 100 μM SMN reverse primer, and […].
PCR is carried out at the following temperatures for the indicated time: Step 1: 48° C. (15 min); Step 2: 95° C. (10 min); Step 3: 95° C. (15 sec); Step 4: 60° C. (1 min); then repeat Steps 3 and 4 for a total of 40 cycles.
Each reaction mixture contains both SMN2-A minigene and GAPDH primers/probe sets (multiplex design), allowing simultaneous measurement of the levels of two transcripts.
Two SMN spliced products are generated from the SMN2 minigene. The first spliced product containing exon 7, corresponding to full length SMN2 mRNA, is referred to herein using the term “SMN2 minigene FL.” The second spliced product lacking exon 7 is referred to herein using the term “SMN2 minigene Δ7.”
The increase of SMN2 minigene FL mRNA relative to that in cells treated with vehicle control is determined from real-time PCR data using a modified ΔΔCt method (as described in Livak and Schmittgen, Methods, 2001, 25:402-8). The amplification efficiency (E) is calculated from the slope of the amplification curve for SMN2 minigene FL and GAPDH individually. The abundances of SMN2 minigene FL and GAPDH are then calculated as (1+E)^−Ct, where Ct is the threshold value for each amplicon. The abundance of SMN2 minigene FL is normalized to GAPDH abundance. The normalized SMN2 minigene FL abundance from test compound-treated samples is then divided by normalized SMN2 minigene FL abundance from vehicle-treated cells to determine the level of SMN2 FL mRNA relative to vehicle control.
For compounds of Formula (I) or a form thereof disclosed herein, Table 4 provides the […] for production of full length SMN2 mRNA that was obtained from the 7-point concentration data generated for each test compound according to the procedure of Biological Example 2. […]

[2] = system: Smn protein in SMA patient fibroblast cells (GM03813); experiment: Smn protein assay in cultured cells (SMN HTRF); assay type: cell-based, human; details: SMA patient fibroblast cells, 48 hours; for maximum fold (Fold) increase of Smn protein: 7-point concentration data, fold relative to vehicle control; for EC1.5x for Smn protein expression: 7-point concentration curve, SMN HTRF, concentration producing 1.5 times Smn protein vs DMSO vehicle control
Procedure: The SMN HTRF (homogeneous time resolved fluorescence) assay is used to quantify the level of Smn protein in SMA patient fibroblast cells treated with test compounds.
Protocol. Cells are thawed and cultured in DMEM-10% FBS for 72 hours. Cells are trypsinized, counted and re-suspended to a concentration of 25,000 cells/mL in DMEM-10% FBS. The cell suspension is plated at 5,000 cells per well in a 96 well microtiter plate and incubated for 3 to 5 hours. […] Test compounds are serially diluted 3.16-fold in 100% DMSO to generate a 7-point concentration curve. 1 μL of test compound solution is transferred to cell-containing wells and cells are incubated for 48 hours in a cell culture incubator (37° C., 5% CO2, 100% relative humidity). Triplicate samples are set up for each test compound concentration. After 48 hours, the supernatant is removed from the wells and 25 μL of the RIPA lysis buffer, containing protease inhibitors, is added to the wells and incubated with shaking at room temperature for 1 hour. 25 μL of the diluent is added and then 35 μL of the resulting lysate is transferred to a 384-well plate, where each well contains 5 μL of the antibody solution (1:100 dilution of anti-SMN d2 and anti-SMN kryptate in SMN reconstitution buffer). The plate is centrifuged for 1 minute to bring the solution to the bottom of the wells, then incubated overnight at room temperature. Fluorescence for each well of the plate at 665 nm and 620 nm is measured on an EnVision multilabel plate reader (Perkin-Elmer).
The normalized fluorescence signal is calculated for each sample, Blank and vehicle control well by dividing the signal at 665 nm by the signal at 620 nm. Normalizing the signal accounts for possible fluorescence quenching due to the matrix effect of the lysate. The ΔF value (a measurement of Smn protein abundance as a percent value) for each sample well is calculated by subtracting the normalized average fluorescence for the Blank control wells from the normalized fluorescence for each sample well, then dividing this difference by the normalized average fluorescence for the Blank control wells and multiplying the resulting value by 100. The ΔF value for each sample well represents the Smn protein abundance from test compound-treated samples. The ΔF value for each sample well is divided by the ΔF value for the vehicle control wells to calculate the fold increase in Smn protein abundance relative to the vehicle control.
For compounds of Formula (I) or a form thereof disclosed herein, Table 9 provides the EC1.5× for Smn protein expression that was obtained from the 7-point concentration data generated for each test compound according to the procedure of Biological Example 7. The term “EC1.5× for Smn protein expression” is defined as that concentration of test compound that is effective in producing 1.5 times the amount of Smn protein in an SMA patient fibroblast cell compared to the amount produced from the DMSO vehicle control. An EC1.5× for Smn protein expression between >3 μM and ≤10 μM is indicated by one star (*), an EC1.5× between >1 μM and ≤3 μM is indicated by two stars (**), an EC1.5× between >0.3 μM and ≤1 μM is indicated by three stars (***) and an EC1.5x≤0.3 μM is indicated by four stars (****).
For compounds of Formula (I) or a form thereof disclosed herein, Table 10 provides the maximum fold (Fold) increase of Smn protein that was obtained from the 7-point concentration data generated for each test compound according to the procedure of Biological Example 7. A maximum fold increase of ≤1.2 is indicated by one star (*), a fold increase between >1.2 and ≤1.35 is indicated by two stars (**), a fold increase between >1.35 and ≤1.5 is indicated by three stars (***), a fold increase between >1.5 and ≤1.65 is indicated by four stars (****) and a fold increase >1.65 is indicated by five stars (*****).

Row | SMILES | EC (1.5-fold increase) [1] [µM] | maximum fold (Fold) increase of Smn protein [2] | EC1.5x for Smn protein expression [2]
1 | COc1ccc(-c2cc(=O)n3cc(N4CCCNCC4)ccc3n2)cc1OC [Compound 10, 7-(1,4-diazepan-1-yl)-2-(3,4-dimethoxyphenyl)-4H-pyrido[1,2-a]pyrimidin-4-one] | 1 to 3 | ** (a fold increase between >1.2 and ≤1.35 is indicated by two stars (**)) | –
2 | COc1ccc(-c2cc(=O)n3cc(N4CCNC(C)(C)C4)ccc3n2)cc1 [Compound 17, 7-(3,3-dimethylpiperazin-1-yl)-2-(4-methoxyphenyl)-4H-pyrido[1,2-a]pyrimidin-4-one] | 1 to 3 | * (A maximum fold increase of ≤1.2 is indicated by one star (*)) | –
3 | COc1cccc(-c2cc(=O)n3cc(N4CCCNCC4)ccc3n2)c1 [Compound 27, 7-(1,4-diazepan-1-yl)-2-(3-methoxyphenyl)-4H-pyrido[1,2-a]pyrimidin-4-one] | 3 to 30 | * (A maximum fold increase of ≤1.2 is indicated by one star (*)) | –
4 | O=c1cc(-c2cc(F)c(O)c(F)c2)nc2ccc(N3CCNCC3)cn12 [Compound 71, 2-(3,5-difluoro-4-hydroxyphenyl)-7-(piperazin-1-yl)-4H-pyrido[1,2-a]pyrimidin-4-one] | 1 to 3 | **** (a fold increase between >1.5 and ≤1.65 is indicated by four stars (****)) | * (An EC1.5× for Smn protein expression between >3 μM and ≤10 μM is indicated by one star (*))
5 | O=c1cc(-c2cc(F)cc(C(F)(F)F)c2)nc2ccc(N3CCNCC3)cn12 [Compound 76, 2-[3-fluoro-5-(trifluoromethyl)phenyl]-7-(piperazin-1-yl)-4H-pyrido[1,2-a]pyrimidin-4-one] | 0.3 to 1 | ** (a fold increase between >1.2 and ≤1.35 is indicated by two stars (**)) | –
6 | COc1ccc(-c2cc(=O)n3cc(N4CCNCC4)ccc3n2)cc1OC(F)F [Compound 99, 2-[3-(difluoromethoxy)-4-methoxyphenyl]-7-(piperazin-1-yl)-4H-pyrido[1,2-a]pyrimidin-4-one] | 0.3 to 1 | **** (a fold increase between >1.5 and ≤1.65 is indicated by four stars (****)) | *** (an EC1.5× between >0.3 μM and ≤1 μM is indicated by three stars (***))
7 | O=c1cc(-c2ccc3nccn3c2)nc2ccc(N3CCNCC3)cn12 [Compound 108, 2-(imidazo[1,2-a]pyridin-6-yl)-7-(piperazin-1-yl)-4H-pyrido[1,2-a]pyrimidin-4-one] | 0.1 to 0.3 | *** (a fold increase between >1.35 and ≤1.5 is indicated by three stars (***)) | –
8 | Cc1cn2cc(-c3cc(=O)n4cc(N5CCN(C)CC5)ccc4n3)ccc2n1 [Compound 114, 2-(2-methylimidazo[1,2-a]pyridin-6-yl)-7-(4-methylpiperazin-1-yl)-4H-pyrido[1,2-a]pyrimidin-4-one] | 1 to 3 | *** (a fold increase between >1.35 and ≤1.5 is indicated by three stars (***)) | –
9 | Cc1cn2cc(-c3cc(=O)n4cc(N5CCN[C@@H](C)C5)ccc4n3)ccc2n1 [Compound 115, 2-(2-methylimidazo[1,2-a]pyridin-6-yl)-7-[(3S)-3-methylpiperazin-1-yl]-4H-pyrido[1,2-a]pyrimidin-4-one] | < 0.1 | **** (a fold increase between >1.5 and ≤1.65 is indicated by four stars (****)) | **** (an EC1.5x≤0.3 μM is indicated by four stars (****))
10 | Cc1cn2cc(-c3cc(=O)n4cc(N5CCCNCC5)ccc4n3)ccc2n1 [Compound 116, 7-(1,4-diazepan-1-yl)-2-(2-methylimidazo[1,2-a]pyridin-6-yl)-4H-pyrido[1,2-a]pyrimidin-4-one] | 0.1 to 0.3 | *** (a fold increase between >1.35 and ≤1.5 is indicated by three stars (***)) | * (An EC1.5× for Smn protein expression between >3 μM and ≤10 μM is indicated by one star (*))
11 | Cc1cn2nc(-c3cc(=O)n4cc(N5CCNCC5)ccc4n3)cc2c(C)n1 [Compound 120, 2-(4,6-dimethylpyrazolo[1,5-a]pyrazin-2-yl)-7-(piperazin-1-yl)-4H-pyrido[1,2-a]pyrimidin-4-one] | < 0.1 | ***** (a fold increase >1.65 is indicated by five stars (*****)) | **** (an EC1.5x≤0.3 μM is indicated by four stars (****))

Source: patent publication US11753407B2, “Compounds for treating spinal muscular atrophy” (PTC Therapeutics, Inc., priority 2012, dated 2023)
